Experimental data published in paper PMC9461663, “Covalent Inhibition of Pyruvate Kinase M2 Reprograms Metabolic and Inflammatory Pathways in Hepatic Macrophages against Non-alcoholic Fatty Liver Disease” (International Journal of Biological Sciences, 2022).

Target: T1, Pyruvate kinase M2 (PKM2) (Mus musculus, UniProt P52480)
T1 construct: gene Pkm; full length recombinant mouse PKM2 (M2 isoform; pET-28a, from pLHCX-Flag-mPKM2)
Assay: LC-MS/MS peptide mapping of the covalent adduct on recombinant PKM2; competition with biotin probe; pyruvate kinase activity assay (IC50)
Assay type: biochemical

T1 sequence (P52480 whole entry, canonical isoform): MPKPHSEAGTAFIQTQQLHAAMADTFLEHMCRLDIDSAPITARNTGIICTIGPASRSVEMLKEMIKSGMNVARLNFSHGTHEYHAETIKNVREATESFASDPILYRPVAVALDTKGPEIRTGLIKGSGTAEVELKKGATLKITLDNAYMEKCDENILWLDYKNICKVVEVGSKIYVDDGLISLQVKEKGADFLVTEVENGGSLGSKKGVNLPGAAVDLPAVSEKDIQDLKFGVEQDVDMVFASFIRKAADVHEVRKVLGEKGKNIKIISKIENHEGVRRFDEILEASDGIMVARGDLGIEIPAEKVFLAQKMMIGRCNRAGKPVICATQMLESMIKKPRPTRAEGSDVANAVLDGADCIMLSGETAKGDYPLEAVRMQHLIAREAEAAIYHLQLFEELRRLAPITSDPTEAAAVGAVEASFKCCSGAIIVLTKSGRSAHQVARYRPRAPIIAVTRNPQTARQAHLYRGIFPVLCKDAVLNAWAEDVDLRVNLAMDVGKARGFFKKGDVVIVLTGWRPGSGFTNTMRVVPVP

SMILES: CC1=C(O)C(=O)C=C2C1=CC=C1[C@@]2(C)CC[C@@]2(C)[C@@H]3C[C@](C)(C(=O)O)CC[C@]3(C)CC[C@]12C [celastrol]
- IC50: 305 µM
